How the values were obtained:
Septoria tritici = experiment: Test G: wheat leaf blotch, preventive spray on wheat seedlings, visual disease rating; settings: wheat leaf blotch, 100 = 100% disease control
Alternaria solani = experiment: Test C: tomato early blight, preventive spray on tomato seedlings, visual disease rating; settings: tomato early blight, 100 = 100% disease control
Source text: (§1) General protocol for preparing test suspensions for Tests A-J: the test compounds were first dissolved in acetone in an amount equal to 3% of the final volume and then suspended at the desired concentration (in ppm) in acetone and purified water (50/50 mix by volume) containing 250 ppm of the surfactant Trem® 014 (polyhydric alcohol esters). The resulting test suspensions were then used in Tests A-J. Spraying a 200 ppm test suspension to the point of run-off on the test plants was the equivalent of a rate of 500 g/ha. Unless otherwise indicated, the rating values indicate a 200 ppm test suspension was used. (An asterisk “*” next to the rating value indicates a 40 ppm test suspension was used.)
The test suspension was sprayed to the point of run-off on tomato seedlings. The following day the seedlings were inoculated with a spore suspension of Alternaria solani (the causal agent of tomato early blight) and incubated in a saturated atmosphere at 27° C. for 48 h, and then moved to a growth chamber at 20° C. for 5 days, after which time visual disease ratings were made.

Botrytis cinerea = experiment: Test B: tomato Botrytis, preventive spray on tomato seedlings, visual disease rating; settings: tomato Botrytis, 100 = 100% disease control
[1] = system: Puccinia recondita f. sp. tritici; experiment: Test H: wheat leaf rust, curative spray on inoculated wheat seedlings, visual disease rating; settings: wheat leaf rust, 100 = 100% disease control
[2] = system: Erysiphe graminis f sp. tritici; experiment: Test J: wheat powdery mildew, preventive spray on wheat seedlings, visual disease rating; settings: wheat powdery mildew, 100 = 100% disease control
Source text: as §1
The test suspension was sprayed to the point of run-off on wheat seedlings. The following day the seedlings were inoculated with a spore dust of Erysiphe graminis f sp. tritici, (the causal agent of wheat powdery mildew) and incubated in a growth chamber at 20° C. for 8 days, after which time visual disease ratings were made.

Septoria nodorum = experiment: Test F: Septoria glume blotch, preventive spray on wheat seedlings, visual disease rating; settings: 100 = 100% disease control
[3] = system: Puccinia recondita f. sp. tritici; experiment: Test I: wheat leaf rust, preventive spray on wheat seedlings, visual disease rating; settings: wheat leaf rust, 100 = 100% disease control
[4] = preventive spray, 0 = no control
[5] = Septoria glume blotch on wheat, preventive spray, 0 = no control
[6] = 0 = no control relative to controls
[7] = curative, 0 = no control relative to controls
[8] = Septoria glume blotch, 0 = no control relative to controls
[9] = preventive, 0 = no control relative to controls

| SMILES | Test G rating (% disease control) (Septoria tritici; [4]) | Test C rating (% disease control) (Alternaria solani; [4]) | Test B rating (% disease control) (Botrytis cinerea; [4]) | Test H rating (% disease control) ([1]; curative spray, 0 = no control) | Test J rating (% disease control) [2, 4] | Test F rating (% disease control) (Septoria nodorum; [5]) | Test I rating (% disease control) [3, 4] | Test G rating (% disease control) (Septoria tritici; [6]) | Test C rating (% disease control) (Alternaria solani; [6]) | Test B rating (% disease control) (Botrytis cinerea; [6]) | Test H rating (% disease control) [1, 7] | Test J rating (% disease control) [2, 6] | Test F rating (% disease control) (Septoria nodorum; [8]) | Test I rating (% disease control) [3, 9] |
| --- | --- | --- | --- | --- | --- | --- | --- | --- | --- | --- | --- | --- | --- | --- |
| Cc1nn(C)c(Nc2cc(F)c(F)c(F)c2)c1-c1ccc(F)cc1Cl [compound 132] | 100% | 0% | 99% | 0% | 92% | 0% | 94% |  |  |  |  |  |  |  |
| Cc1nn(C)c(Nc2c(F)cc(F)cc2F)c1-c1c(F)cc(C#N)cc1F [compound 133] | 99% | 100% | 100% | 0% | 94% | 60% | 100% |  |  |  |  |  |  |  |
| COc1cc(F)c(Nc2c(-c3c(F)cc(C#N)cc3F)c(C)nn2C)c(F)c1 [compound 134] | 99% | 0% | 99% | 0% | 0% | 0% | 41% |  |  |  |  |  |  |  |
| Cc1cc(Oc2c(-c3c(F)cc(F)cc3F)c(C)nn2C)ccc1[N+](=O)[O-] [compound 135] | 97% | 0% | 0% | 16% | 95% | 0% | 74% |  |  |  |  |  |  |  |
| Cc1nn(C)c(Nc2cccc(F)c2)c1-c1c(F)cc(C#N)cc1F [compound 136] | 99% | 71% | 99% | 0% | 100% | 86% | 99% |  |  |  |  |  |  |  |
| Cc1nn(C)c(Nc2cc(F)ccc2F)c1-c1c(F)cc(C#N)cc1F [compound 137] | 99% | 97% | 96% | 8% | 100% | 78% | 100% |  |  |  |  |  |  |  |
| Cc1nn(C)c(Nc2cc(F)c(F)cc2F)c1-c1c(F)cc(C#N)cc1F [compound 138] | 99% | 96% | 99% | 38% | 98% | 84% | 100% |  |  |  |  |  |  |  |
| COc1cc(F)c(-c2c(C)nn(C)c2Oc2c(F)cc(C#N)cc2F)c(F)c1 [compound 140] | 99% | 94% | 99% | 0% | 97% | 87% | 96% |  |  |  |  |  |  |  |
| CCOc1cc(F)c(-c2c(C)nn(C)c2Nc2ccc(F)cc2F)c(F)c1 [compound 141] | 100% | 99% | 99% | 0% | 100% | 98% | 99% |  |  |  |  |  |  |  |
| Cc1nn(C)c(Nc2cc(Cl)ccc2F)c1-c1c(F)cc(C#N)cc1F [compound 142] | 99% | 13% | 33% | 0% | 90% | 20% | 95% |  |  |  |  |  |  |  |
| Cc1nn(C)c(Nc2ccc(Cl)cc2F)c1-c1c(F)cc(C#N)cc1F [compound 143] | 100% | 99% | 99% | 63% | 100% | 100% | 100% |  |  |  |  |  |  |  |
| Cc1nn(C)c(Nc2ccc(F)c(Cl)c2)c1-c1c(F)cc(C#N)cc1F [compound 144] | 99% | 9% | 99% | 0% | 91% | 40% | 98% |  |  |  |  |  |  |  |
| Cc1nn(C)c(Nc2cccc(F)c2F)c1-c1c(F)cc(C#N)cc1F [compound 145] | 100% | 98% | 96% | 88% | 100% | 100% | 100% |  |  |  |  |  |  |  |
| Cc1nn(C)c(Nc2cc(Cl)ccc2Cl)c1-c1c(F)cc(C#N)cc1F [compound 146] | 99% | 0% | 99% | 0% | 56% | 0% | 97% |  |  |  |  |  |  |  |
| Cc1nn(C)c(Nc2cccc(Cl)c2Cl)c1-c1c(F)cc(C#N)cc1F [compound 147] | 100% | 88% | 99% | 0% | 92% | 100% | 98% |  |  |  |  |  |  |  |
| Cc1nn(C)c(Oc2ccc(F)cc2C#N)c1-c1ccc(F)cc1Cl [compound 149] |  |  |  |  |  |  |  | 100% | 98% | 100% | 99% | 100% | 100% | 100% |
| Cc1nn(C)c(Oc2cc(C#N)c(C#N)cc2Cl)c1-c1ccc(F)cc1Cl [compound 150] |  |  |  |  |  |  |  | 7% | 0% | 19% | 0% | 50% | 60% | 74% |
| COc1cc(Oc2c(-c3c(F)cc(F)cc3F)c(C)nn2C)ccc1[N+](=O)[O-] [compound 151] |  |  |  |  |  |  |  | 96% | 9% | 99% | 0% | 64% | 0% | 54% |
| COc1cc(F)c(-c2c(C)nn(C)c2Oc2ccc(Cl)c(F)c2)c(F)c1 [compound 152] |  |  |  |  |  |  |  | 99% | 82% | 100% | 9% | 99% | 87% | 97% |

From patent publication US10448639B2, “Fungicidal pyrazoles” (FMC CORPORATION, priority 2009, dated 2019)
